Test results from patent publication US20250101446A1, “METHOD FOR GENETIC TRANSFORMATION OF PLANT ORGANELLE GENOME AND USES THEREOF” (Solar Grants Biotechnology Inc., priority 2022, published 2025).

Tests used:
[1] = system: human NSCLC cell line NCI-H1792; assay: Attenuation of P1-induced IL-6 secretion in NCI-H1792 cells by pre-treatment with plant-produced cytokines (ELISA); type: cell-based; details: control protein bearing an identical His-tag
[2] = system: human NSCLC cell line NCI-H1792; assay: IL-6 secretion by NCI-H1792 cells incubated with NSP10-derived peptides (ELISA); type: cell-based; details: peptide 24 h
[3] = system: human metastatic breast cancer cell line MDA-MB-231; assay: IL-6 secretion by MDA-MB-231 cells (P1 stimulation, plantakine pre-incubation; ELISA); type: cell-based
Method: IL-6 secretion by the human metastatic breast cancer cell line MDA-MB-231 into the conditioned media was measured by ELISA. The cells were pre-incubated for 3 h in the presence of plant-produced recombinant IL-38 or IL-37b at the indicated concentrations (ng/ml) prior to stimulation with peptide P1 (10 mM). PBS (1×) was added to the control. Shown are the average results of 3 independent experiments. ** P<0.01; * P<0.05, compared with the control.
Correct folding of plant-produced IL-38 and IL-37b anti-inflammatory cytokines was assessed by enzyme-linked immunosorbent assay (ELISA) using the DuoSet Human IL-38/IL-1F10 kit (R&D systems) and the Human IL-37/IL-1F7 uncoated ELISA kit (Invitrogen), respectively, following the instructions of the manufacturers. Secreted IL-6 was assessed using the Human IL-6 Uncoated ELISA kit (Invitrogen).

in vitro = details: human
SARS-COV-2 = type: cell-based; details: at 200 µM concentration

GFP: His-tag containing plant-produced Green Fluorescent Protein used as control protein [reference compound]
attenuation of P1-induced IL-6 expression (in words) [1]: did not result in any significant attenuation

CC[C@H](C)[C@H](NC(=O)[C@H](Cc1c[nH]cn1)NC(=O)[C@H](CS)NC(=O)[C@H](CCCNC(=N)N)NC(=O)[C@H](CS)NC(=O)[C@H](Cc1ccc(O)cc1)NC(=O)[C@H](CC(C)C)NC(=O)[C@H](CS)NC(=O)[C@H](CS)NC(=O)[C@H](CO)NC(=O)[C@H](C)NC(=O)CNC(=O)CNC(=O)[C@H](Cc1ccccc1)NC(=O)CNC(=O)[C@H](CO)NC(=O)CNC(=O)[C@H](CCCNC(=N)N)NC(=O)[C@H](CCCNC(=N)N)NC(=O)[C@H](CCCNC(=N)N)NC(=O)[C@H](CCC(N)=O)NC(=O)[C@H](CCCNC(=N)N)NC(=O)[C@H](CCCNC(=N)N)NC(=O)[C@H](CCCCN)NC(=O)[C@H](CCCCN)NC(=O)[C@H](CCCNC(=N)N)NC(=O)CNC(=O)[C@H](Cc1ccc(O)cc1)NC(C)=O)C(=O)N[C@@H](CC(=O)O)C(=O)N[C@@H](Cc1c[nH]cn1)C(=O)N1CCC[C@H]1C(=O)N[C@@H](CC(N)=O)C(=O)N1CCC[C@H]1C(=O)N[C@@H](CCCCN)C(=O)NCC(=O)N[C@@H](Cc1ccccc1)C(=O)N[C@@H](CS)C(=O)N[C@@H](CC(=O)O)C(=O)N[C@@H](CC(C)C)C(=O)N[C@@H](CCCCN)C(=O)NCC(=O)N[C@@H](CCCCN)C(=O)N[C@@H](Cc1ccc(O)cc1)C(N)=O [P1]
stimulation of the intrinsic secretion of IL-6 ([2]; normalized to PBS control): > 4 fold
IL-6 secretion on treatment with peptide (in words) [3]: strongly increased
CC50 (in vitro): 11 µM

YGRKKRRQRRRGSG (HIV-Tat peptide sequence) [TAT sequence peptide, 42, reference compound]
stimulation / induction of IL-6 secretion (in words) [2]: not

CC[C@H](C)[C@H](NC(=O)[C@H](CCCNC(=N)N)NC(=O)[C@H](CS)NC(=O)[C@H](CCCNC(=N)N)NC(=O)[C@H](CS)NC(=O)[C@H](Cc1ccc(O)cc1)NC(=O)[C@H](CC(C)C)NC(=O)[C@H](CS)NC(=O)[C@H](CS)NC(=O)[C@H](CO)NC(=O)[C@H](C)NC(=O)CNC(=O)CNC(=O)[C@H](Cc1ccccc1)NC(=O)CNC(=O)[C@H](CO)NC(=O)CNC(=O)[C@H](CCCNC(=N)N)NC(=O)[C@H](CCCNC(=N)N)NC(=O)[C@H](CCCNC(=N)N)NC(=O)[C@H](CCC(N)=O)NC(=O)[C@H](CCCNC(=N)N)NC(=O)[C@H](CCCNC(=N)N)NC(=O)[C@H](CCCCN)NC(=O)[C@H](CCCCN)NC(=O)[C@H](CCCNC(=N)N)NC(=O)CNC(=O)[C@H](Cc1ccc(O)cc1)NC(C)=O)C(=O)N[C@@H](CC(=O)O)C(=O)N[C@@H](Cc1c[nH]cn1)C(=O)N1CCC[C@H]1C(=O)N[C@@H](CC(N)=O)C(=O)N1CCC[C@H]1C(=O)N[C@@H](CCCCN)C(=O)NCC(=O)N[C@@H](Cc1ccccc1)C(=O)N[C@@H](CS)C(=O)N[C@@H](CC(=O)O)C(=O)N[C@@H](CC(C)C)C(=O)N[C@@H](CCCCN)C(=O)NCC(=O)N[C@@H](CCCCN)C(=O)N[C@@H](Cc1ccc(O)cc1)C(N)=O [P2]
stimulation / induction of IL-6 secretion (in words) [2]: no IL-6 induction
effect against the virus-infected cells (SARS-COV-2): no detectable effect
CC50 (in vitro): > 200 µM
